Measurements: article PMC10975611, “Heterocycles 52: The Drug-Likeness Analysis of Anti-Inflammatory Thiazolo[3,2-b][1,2,4]triazole and Imidazo[2,1-b][1,3,4]thiadiazole Derivatives” (Pharmaceuticals, 2024)

Tests used:
[1] = design: method as in doi:10.31925/farmacia.2018.5.20, PMID 30248903; conditions: in vivo; cited from earlier work
[2] = Lipophilicity by reversed-phase thin-layer chromatography (RP-TLC), isopropanol-water mobile phase; type: physicochemical; conditions: for mRM (arithmetic mean of the experimental retention factors RM): RP-18F254s plates, isopropanol 70–90% in water; for RM0 (relative lipophilicity, RM extrapolated to pure water): Soczewinski Wachtmeister equation, isopropanol 70–90%; for PC1(RM): score of first principal component of RM values at isopropanol 70–90%; for b (slope): slope of RM versus isopropanol concentration; for φ0 (chromatographic hydrophobic index): φ0 = RM0/b; for lipophilicity (in words): chromatographic lipophilicity profile / lipophilicity descriptors
Procedure: Lipophilicity was assessed by RP-TLC, using RP-[…] standard silica gel plates (20 × 10 cm) as the stationary phase. An isopropanol:water binary mixture was used as the mobile phase, with different isopropanol concentrations 70%, 75%, 80%, 85%, 90% for thiazolo[3,2-b][1,2,4]triazole (1a–16a) and imidazo[2,1-b][1,3,4]thiadiazole (1b–16b) compounds.
The standard solutions (1 mg/mL) used to investigate the lipophilicity of the synthesized compounds were prepared in dichloromethane (1a–16a compounds) and dimethylsulfoxide (1b–16b compounds). From the obtained solutions, 2 µL was applied manually on the chromatographic plates, at 15 mm from the baseline and 5 mm from the edges of the plate at a spot distance of 12 mm. This procedure was repeated three times. The chromatographic plate upward elution was performed in a chromatographic chamber previously saturated for 30 min with mobile phase, at normal atmospheric pressure and room temperature. The migration distance of the eluent was 80 mm. The chromatographic plates were visually inspected under UV light at λ = 254 nm to identify the compounds. In order to minimize possible experimental errors, three measurements were performed for each mobile phase. The retention factors (Rf) were calculated as the average of three determinations in each case.
Based on the Rf values, a variety of parameters can be determined to estimate the lipophilicity of the compounds. The isocratic retention factor (RM) was determined using the Bate–Smith and Westall equation [34]:RM = log(1/Rf − 1) where Rf = x/y and x = the migration distance of the compound, and y = the migration distance of the solvent front.
There is usually a linear correlation between the RM values and the concentration of the organic component in the mobile phase. For a better estimation of lipophilicity, RM0 was determined as the extrapolated retention factor, considering pure water as the mobile phase (Soczewinski Wachtmeister equation):RM = RM0 + bC where b is the slope of the curve, which indicates the rate at which the solubility of the compound increases in the mobile phase, C is the concentration of the isopropanol in the mobile phase, and RM0 is the RM of the compound when the concentration of isopropanol is zero (extrapolated value).
To estimate the lipophilicity of the compounds, φ0, representing the chromatographic hydrophobicity index, was also determined. It corresponds to the percentage (by volume) of the organic component in the mobile phase and can be determined according to the following formula:φ0 = RM0/b
In order to assess the lipophilicity of compounds, other more relevant lipophilicity parameters have been used, such as the arithmetic mean of the experimental retention factors (mRM), and the score associated with the first principal component (PC1(RM)) obtained by applying principal component analysis (PCA) to the retention parameters RM [35, 36]. The determination of these parameters eliminates the errors that appear during the extrapolation procedure (when determining RM0) so that the results are more accurate.

[3] = design: method as in doi:10.31925/farmacia.2018.5.20, PMID 30248903; conditions: acute inflammation, compared to diclofenac; cited from earlier work

c1ccc(-c2nc3scc(-c4ccccc4)n3n2)cc1 [Compound 1a]
pain threshold [1]: increased pain threshold | mRM (arithmetic mean of the experimental retention factors RM) [2]: 0.056 | RM0 (relative lipophilicity, RM extrapolated to pure water) [2]: 1.810 | PC1(RM) [2]: −0.309 | b (slope) [2]: −0.022 | φ0 (chromatographic hydrophobic index) [2]: 82.63 | in vivo anti-inflammatory activity [3]: significantly reduced acute inflammation in vivo

NS(=O)(=O)c1ccc(-c2nn3cc(-c4ccccc4)nc3s2)cc1 [Compound 13b]
pain threshold [1]: increased pain threshold | mRM (arithmetic mean of the experimental retention factors RM) [2]: −0.464 | RM0 (relative lipophilicity, RM extrapolated to pure water) [2]: 0.988 | lipophilicity (in words) [2]: the least lipophilic compounds | PC1(RM) [2]: 1.554 | b (slope) [2]: −0.018 | φ0 (chromatographic hydrophobic index) [2]: 53.99 | in vivo anti-inflammatory activity [3]: significantly reduced acute inflammation in vivo

COc1ccc(-c2cn3nc(-c4ccc(OC)cc4)sc3n2)cc1 [Compound 12b]
pain threshold [1]: increased pain threshold | mRM (arithmetic mean of the experimental retention factors RM) [2]: 0.097 | RM0 (relative lipophilicity, RM extrapolated to pure water) [2]: 1.460 | lipophilicity (in words) [2]: low lipophilicity | PC1(RM) [2]: −0.450 | b (slope) [2]: −0.017 | φ0 (chromatographic hydrophobic index) [2]: 85.89 | in vivo anti-inflammatory activity [3]: significantly reduced acute inflammation in vivo

Clc1ccc(-c2nn3cc(-c4ccccc4)nc3s2)cc1 [Compound 5b]
pain threshold [1]: increased pain threshold | mRM (arithmetic mean of the experimental retention factors RM) [2]: 0.144 | RM0 (relative lipophilicity, RM extrapolated to pure water) [2]: 2.270 | PC1(RM) [2]: −0.624 | b (slope) [2]: −0.027 | φ0 (chromatographic hydrophobic index) [2]: 85.32 | in vivo anti-inflammatory activity [3]: significantly reduced acute inflammation in vivo

COc1ccc(-c2nc3scc(-c4ccccc4)n3n2)cc1 [Compound 9a]
pain threshold [1]: increased pain threshold | mRM (arithmetic mean of the experimental retention factors RM) [2]: 0.006 | RM0 (relative lipophilicity, RM extrapolated to pure water) [2]: 1.705 | lipophilicity (in words) [2]: low lipophilicity | PC1(RM) [2]: −0.127 | b (slope) [2]: −0.021 | φ0 (chromatographic hydrophobic index) [2]: 80.40 | in vivo anti-inflammatory activity [3]: significantly reduced acute inflammation in vivo

c1ccc(-c2cn3nc(-c4ccccc4)sc3n2)cc1 [Compound 1b]
pain threshold [1]: increased pain threshold | mRM (arithmetic mean of the experimental retention factors RM) [2]: 0.072 | RM0 (relative lipophilicity, RM extrapolated to pure water) [2]: 1.955 | PC1(RM) [2]: −0.365 | b (slope) [2]: −0.024 | φ0 (chromatographic hydrophobic index) [2]: 83.18 | in vivo anti-inflammatory activity [3]: significantly reduced acute inflammation in vivo

COc1ccc(-c2nc3scc(-c4ccc(OC)cc4)n3n2)cc1 [Compound 12a]
pain threshold [1]: increased pain threshold | mRM (arithmetic mean of the experimental retention factors RM) [2]: −0.013 | RM0 (relative lipophilicity, RM extrapolated to pure water) [2]: 1.696 | lipophilicity (in words) [2]: low lipophilicity | PC1(RM) [2]: −0.058 | b (slope) [2]: −0.021 | φ0 (chromatographic hydrophobic index) [2]: 79.62 | in vivo anti-inflammatory activity [3]: significantly reduced acute inflammation in vivo

COc1ccc(-c2csc3nc(-c4ccccc4)nn23)cc1 [Compound 4a]
pain threshold [1]: increased pain threshold | mRM (arithmetic mean of the experimental retention factors RM) [2]: 0.031 | RM0 (relative lipophilicity, RM extrapolated to pure water) [2]: 1.612 | lipophilicity (in words) [2]: low lipophilicity | PC1(RM) [2]: −0.216 | b (slope) [2]: −0.020 | φ0 (chromatographic hydrophobic index) [2]: 81.40 | in vivo anti-inflammatory activity [3]: significantly reduced acute inflammation in vivo

Brc1ccc(-c2cn3nc(-c4ccccc4)sc3n2)cc1 [Compound 2b]
mRM (arithmetic mean of the experimental retention factors RM) [2]: 0.174 | RM0 (relative lipophilicity, RM extrapolated to pure water) [2]: 2.507 | lipophilicity (in words) [2]: high lipophilicity | PC1(RM) [2]: −0.730 | b (slope) [2]: −0.029 | φ0 (chromatographic hydrophobic index) [2]: 85.86

NS(=O)(=O)c1ccc(-c2nc3scc(-c4ccc(Br)cc4)n3n2)cc1 [Compound 14a]
mRM (arithmetic mean of the experimental retention factors RM) [2]: −0.435 | RM0 (relative lipophilicity, RM extrapolated to pure water) [2]: 1.309 | PC1(RM) [2]: 1.448 | b (slope) [2]: −0.022 | φ0 (chromatographic hydrophobic index) [2]: 60.05

COc1ccc(-c2cn3nc(-c4ccc(S(N)(=O)=O)cc4)sc3n2)cc1 [Compound 16b]
mRM (arithmetic mean of the experimental retention factors RM) [2]: −0.511 | RM0 (relative lipophilicity, RM extrapolated to pure water) [2]: 0.938 | PC1(RM) [2]: 1.723 | b (slope) [2]: −0.018 | φ0 (chromatographic hydrophobic index) [2]: 52.12

NS(=O)(=O)c1ccc(-c2nc3scc(-c4ccccc4)n3n2)cc1 [Compound 13a]
pain threshold [1]: increased pain threshold | mRM (arithmetic mean of the experimental retention factors RM) [2]: −0.555 | RM0 (relative lipophilicity, RM extrapolated to pure water) [2]: 1.472 | lipophilicity (in words) [2]: the least lipophilic compounds | PC1(RM) [2]: 1.875 | b (slope) [2]: −0.026 | φ0 (chromatographic hydrophobic index) [2]: 57.72 | in vivo anti-inflammatory activity [3]: significantly reduced acute inflammation in vivo

COc1ccc(-c2csc3nc(-c4ccc(S(N)(=O)=O)cc4)nn23)cc1 [Compound 16a]
mRM (arithmetic mean of the experimental retention factors RM) [2]: −0.529 | RM0 (relative lipophilicity, RM extrapolated to pure water) [2]: 0.864 | PC1(RM) [2]: 1.788 | b (slope) [2]: −0.017 | φ0 (chromatographic hydrophobic index) [2]: 49.68

COc1ccc(-c2cn3nc(-c4ccc(Cl)cc4)sc3n2)cc1 [Compound 8b]
mRM (arithmetic mean of the experimental retention factors RM) [2]: 0.148 | RM0 (relative lipophilicity, RM extrapolated to pure water) [2]: 2.183 | PC1(RM) [2]: −0.634 | b (slope) [2]: −0.026 | φ0 (chromatographic hydrophobic index) [2]: 84.92

Clc1ccc(-c2nc3scc(-c4ccc(Br)cc4)n3n2)cc1 [Compound 6a]
mRM (arithmetic mean of the experimental retention factors RM) [2]: 0.324 | RM0 (relative lipophilicity, RM extrapolated to pure water) [2]: 2.582 | lipophilicity (in words) [2]: the most lipophilic compounds | PC1(RM) [2]: −1.267 | b (slope) [2]: −0.028 | φ0 (chromatographic hydrophobic index) [2]: 91.57

COc1ccc(-c2nn3cc(-c4ccccc4)nc3s2)cc1 [Compound 9b]
pain threshold [1]: increased pain threshold | mRM (arithmetic mean of the experimental retention factors RM) [2]: 0.138 | RM0 (relative lipophilicity, RM extrapolated to pure water) [2]: 1.900 | lipophilicity (in words) [2]: low lipophilicity | PC1(RM) [2]: −0.596 | b (slope) [2]: −0.022 | φ0 (chromatographic hydrophobic index) [2]: 85.59 | in vivo anti-inflammatory activity [3]: significantly reduced acute inflammation in vivo

FC(F)(F)c1ccc(-c2cn3nc(-c4ccccc4)sc3n2)cc1 [Compound 3b]
mRM (arithmetic mean of the experimental retention factors RM) [2]: 0.062 | RM0 (relative lipophilicity, RM extrapolated to pure water) [2]: 2.410 | PC1(RM) [2]: −0.331 | b (slope) [2]: −0.029 | φ0 (chromatographic hydrophobic index) [2]: 81.96

COc1ccc(-c2cn3nc(-c4ccccc4)sc3n2)cc1 [Compound 4b]
pain threshold [1]: increased pain threshold | mRM (arithmetic mean of the experimental retention factors RM) [2]: 0.071 | RM0 (relative lipophilicity, RM extrapolated to pure water) [2]: 1.805 | lipophilicity (in words) [2]: low lipophilicity | PC1(RM) [2]: −0.362 | b (slope) [2]: −0.022 | φ0 (chromatographic hydrophobic index) [2]: 83.16 | in vivo anti-inflammatory activity [3]: significantly reduced acute inflammation in vivo

Clc1ccc(-c2nn3cc(-c4ccc(Br)cc4)nc3s2)cc1 [Compound 6b]
mRM (arithmetic mean of the experimental retention factors RM) [2]: 0.239 | RM0 (relative lipophilicity, RM extrapolated to pure water) [2]: 2.454 | lipophilicity (in words) [2]: the most lipophilic compounds | PC1(RM) [2]: −0.960 | b (slope) [2]: −0.028 | φ0 (chromatographic hydrophobic index) [2]: 87.94
